# Results taken from patent US4087421A, “Substituted benzodiazepines and method of use” (American Cyanamid Company, priority 1977, dated 1978).
# Values joined by “and” are separate entries in the source; they are usually repeats but may differ in a detail not shown here. Identical values can stand only once.
# Experiments:
# [1] = "writhing syndrome" test for analgesic activity (phenyl p-quinone); assay type: in vivo, male Swiss albino mice; conditions: 6.25 mg/kg oral; control approximately 30 per pair; active if 18 or less
# Procedure: This method is based upon the reduction of the number of writhes following the intraperitoneal injection of one mg./kg. of body weight of phenyl p-quinone in male Swiss albino mice weighing 15-25 g. The syndrome is characterized by intermittent contractions of the abdomen, twisting and turning of the trunk, and extension of the hind legs beginning 3 to 5 minutes after injection of the phenyl p-quinone. The test compounds are administered orally at the indicated dose to groups of 2 mice each, 30 minutes before injection of the phenyl p-quinone.
# reversible ptosis test = assay type: in vivo; conditions: oral, rats
# Procedure: A useful test for anti-psychotic activity consists of measuring ptosis in animals.
# Ptosis is defined as closure of the palpebral aperture (eyelid) greater than 70%. The compounds to be tested were administered orally to groups of 10 rats each. Periodically after treatment the rats were gently placed on the cage top and examined for 90 seconds for signs of ptosis. This manipulation eliminates spontaneous ptosis. The rats were then dropped from a height of about 18 inches (exteroceptive stimulation) onto the cage top to test for reversibility of ptosis. Reversible ptosis is defined as less than 70% closure of the palpebral aperture for longer than one minute after the exteroceptive stimulation and is indicative of neuroleptic activity of the drug administered.
# [2] = reduction of spontaneous motor activity (Animax Activity Counter); assay type: in vivo; conditions: Rattus norvegicus, 5 min; oral, rats, 5 minute period; read-out: MDD50 (effective dose that causes a 50% reduction in motor activity)
# Procedure: A useful test for anti-psychotic activity consists of measuring the reduction of spontaneous motor activity in animals.
# Groups of 4 rats are treated orally with the test compound dissolved or suspended in starch vehicle at the maximum tolerated dose. At the estimated time of peak effect, the animals are placed singly into an Animax Activity Counter and the activity of each rat is recorded over a 5 minute period. The activity counts are compared to historical or parallel control values to determine significant increased or decreased locomotor activity.
# [3] = Inhibition of tetrabenazine induced depression of exploratory behavior in mice; assay type: in vivo; conditions: for Number Responded/Number Treated: intraperitoneally or orally, 1 h before tetrabenazine 30 mg/kg; for ED50: Mus musculus, calculated by method of Finney, dose column in mg/kg, read-out: ED50 (95% C.L.)
# Procedure: Varying doses of the test compounds are administered intraperitoneally or orally to 5 mice one hour before the administration of tetrabenazine hexamate at an intraperitoneal dose of 30 mg/kg which is known to depress markedly the exploratory behavior of normal mice. Thirty minutes later the mice are tested for their exploratoy behavior. Individual mice are placed in the center of a horizontal disc. Inhibition of the depression induced by tetrabenazine is considered present if the mice perform one or more of the following actions within 10 seconds after being placed on the disc:
# (1) Animals move to the edge of the disc and pear over the side.
# (2) Animals move 180° in place.
# (3) Animals display a head movement of 90° immediately followed by a head movement in the opposite direction of at least 45°.
# Administration of the test compounds to additional groups of 5 mice is repeated, the numbers of individual animals showing an anti-depressant response (normal exploratory behavior) is recorded and the results are analyzed by the following scheme (statistically standardized; significant P = less than 0.05).
# The results from several dose levels (acceptance in at least two sequential test procedures) are then used to establish the Range of Active Doses.
# [4] = Prevention of reserpine-induced hypothermia in rats; assay type: in vivo; conditions: for ED50: Rattus norvegicus, oral, dose column in mg/kg, read-out: ED50 (95% C.L.)
# Procedure: Groups of 5 rats were treated orally with graded doses of the test compounds. One hour later the animals were treated with reserpine (solubilized in propylene glycol and citric acid) at a dose of 5 mg/kg intraperitoneally. Rectal temperatures were measured using a YSI Telethermometer. Temperatures were recorded just prior to treatment, one hour later just prior to reserpine administration and at hourly intervals following reserpine administration for 5 hours. […]
compound,measurement,setting,value
"CN1CCN(C2=Nc3ccc(Cl)cc3Nc3cscc32)CC1 [6-Chloro-10-(4-methyl-1-piperazinyl)-4H-thieno[3,4-b][1,5]benzodiazepine]",No. of Writhes Per Pair,[1],7 and 6
same,ED50 (dose estimated to create reversible ptosis in 50% of the animals),reversible ptosis test,17 mg/kg
same,ED50,[2],7.7 mg/kg
"CCN1CCN(C2=Nc3ccccc3N(C)c3cscc32)CC1 [4-Methyl-10-(4-ethyl-1-piperazinyl)-4H-thieno[3,4-b][1,5]benzodiazepine]",Number Responded/Number Treated,[3]; 3.13 mg/kg,3/15
same,Number Responded/Number Treated,[3]; 6.25 mg/kg,10/30
same,Number Responded/Number Treated,[3]; 12.5 mg/kg,12/25
same,Number Responded/Number Treated,[3]; 25.0 mg/kg,10/25
same,ED50,[3],~35 mg/kg
"CN1c2ccccc2N=C(N2CCN(CCO)CC2)c2cscc21 [4-(4-Methyl-4H-thieno[3,4-b][1,5]-benzodiazepin-10-yl)-1-piperazineethanol]",Number Responded/Number Treated,[3]; 1.56 mg/kg,5/30
same,Number Responded/Number Treated,[3]; 3.13 mg/kg,10/30
same,Number Responded/Number Treated,[3]; 6.25 mg/kg,9/20
same,Number Responded/Number Treated,[3]; 12.5 mg/kg,11/20
same,Number Responded/Number Treated,[3]; 25.0 mg/kg,10/20
same,ED50,[3],13 mg/kg
same,Percent of Animals Showing > Two Standard Deviations in Rectal Temperature Over Control Means,"[4]; 5 mg/kg oral, 2 hours after reserpine",0%
same,Percent of Animals Showing > Two Standard Deviations in Rectal Temperature Over Control Means,"[4]; 5 mg/kg oral, 3 hours after reserpine",0%
same,Percent of Animals Showing > Two Standard Deviations in Rectal Temperature Over Control Means,"[4]; 5 mg/kg oral, 4 hours after reserpine",0%
same,Percent of Animals Showing > Two Standard Deviations in Rectal Temperature Over Control Means,"[4]; 5 mg/kg oral, 5 hours after reserpine",0%
same,Percent of Animals Showing > Two Standard Deviations in Rectal Temperature Over Control Means,"[4]; 10 mg/kg oral, 2 hours after reserpine",80%
same,Percent of Animals Showing > Two Standard Deviations in Rectal Temperature Over Control Means,"[4]; 10 mg/kg oral, 3 hours after reserpine",80%
same,Percent of Animals Showing > Two Standard Deviations in Rectal Temperature Over Control Means,"[4]; 10 mg/kg oral, 4 hours after reserpine",80%
same,Percent of Animals Showing > Two Standard Deviations in Rectal Temperature Over Control Means,"[4]; 10 mg/kg oral, 5 hours after reserpine",80%
same,Percent of Animals Showing > Two Standard Deviations in Rectal Temperature Over Control Means,"[4]; 20 mg/kg oral, 2 hours after reserpine",100%
same,Percent of Animals Showing > Two Standard Deviations in Rectal Temperature Over Control Means,"[4]; 20 mg/kg oral, 3 hours after reserpine",80%
same,Percent of Animals Showing > Two Standard Deviations in Rectal Temperature Over Control Means,"[4]; 20 mg/kg oral, 4 hours after reserpine",80%
same,Percent of Animals Showing > Two Standard Deviations in Rectal Temperature Over Control Means,"[4]; 20 mg/kg oral, 5 hours after reserpine",40%
same,ED50,[4]; 2 hours after reserpine,9.1 mg/kg
same,ED50,[4]; 3 hours after reserpine,10.6 mg/kg
same,ED50,[4]; 4 hours after reserpine,10.6 mg/kg
same,ED50,[4]; 5 hours after reserpine,14.6 mg/kg
